Source: ChEMBL document CHEMBL1201862, “PubChem BioAssay data set” (2004)
Values belong to the compound of their own block, whether it stands above or below them. Calls of active or inactive are those of the source.

Tests used:
[1] = target: Sphingosine 1-phosphate receptor 2 (Homo sapiens, UniProt O95136); test: Dose Response Cell Based Assay for Antagonists of the S1P2 Receptor. [Related pubchem assays: 856, 736 ]; type: functional
[2] = tested on: INS1; test: beta cell apoptosis inhibitors, cytokine rescue, dose response, luminescence, retest (AID 449756); type: functional, cell-based; details: Rattus norvegicus;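 also: cell death triggered by IL-1 beta plus TNF-alpha plus IFN-gamma mixture; protective hits raise ATP signal compared with cytokine alone wells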
[3] = target: Signal transducer and activator of transcription 1-alpha/beta (Homo sapiens, UniProt P42224); test: STAT1 signalling inhibitors, dose response, cell-based, NIH 3T3, luciferase reporter (AID 1396); type: functional
Signal transducer and activator of transcription 1-alpha/beta, sequence (P42224 whole entry): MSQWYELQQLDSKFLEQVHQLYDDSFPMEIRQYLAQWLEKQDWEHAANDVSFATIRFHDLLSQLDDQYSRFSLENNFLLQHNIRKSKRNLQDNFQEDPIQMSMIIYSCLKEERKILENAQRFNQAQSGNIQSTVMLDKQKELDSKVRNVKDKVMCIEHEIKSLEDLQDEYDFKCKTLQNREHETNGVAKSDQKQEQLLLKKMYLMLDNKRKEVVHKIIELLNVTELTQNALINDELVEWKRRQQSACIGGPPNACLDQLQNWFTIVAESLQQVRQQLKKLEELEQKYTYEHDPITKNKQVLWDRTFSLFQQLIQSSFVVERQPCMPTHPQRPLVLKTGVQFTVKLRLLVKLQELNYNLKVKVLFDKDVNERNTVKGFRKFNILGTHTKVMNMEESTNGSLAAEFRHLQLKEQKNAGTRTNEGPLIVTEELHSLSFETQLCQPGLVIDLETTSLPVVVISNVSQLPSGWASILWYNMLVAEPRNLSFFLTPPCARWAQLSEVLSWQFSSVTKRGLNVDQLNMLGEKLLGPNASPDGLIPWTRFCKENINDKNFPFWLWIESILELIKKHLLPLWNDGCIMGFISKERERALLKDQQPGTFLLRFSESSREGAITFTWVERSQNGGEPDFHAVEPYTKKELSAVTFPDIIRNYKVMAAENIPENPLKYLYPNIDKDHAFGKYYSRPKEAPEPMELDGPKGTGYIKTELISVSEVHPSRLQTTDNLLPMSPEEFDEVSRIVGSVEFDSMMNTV

[4] = intracellular Trypanosoma cruzi inhibitors in host cells – cell-based, plate reader, cherry-pick samples, set 3, dose response (AID 651818); type: functional;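 also: compounds incubated with infected cells for about four days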
[5] = target: Paired box protein Pax-8 (Homo sapiens, UniProt Q06710); test: inhibitors of PAX8-driven TPO luciferase reporter, dose response, RMG-I cells, cherry-pick (AID 687027); type: functional, cell-based;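 also: luciferase reporter driven by Pax8 target thyroperoxidase promoter measured by SteadyGlo luminescence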
Paired box protein Pax-8, sequence (Q06710 whole entry): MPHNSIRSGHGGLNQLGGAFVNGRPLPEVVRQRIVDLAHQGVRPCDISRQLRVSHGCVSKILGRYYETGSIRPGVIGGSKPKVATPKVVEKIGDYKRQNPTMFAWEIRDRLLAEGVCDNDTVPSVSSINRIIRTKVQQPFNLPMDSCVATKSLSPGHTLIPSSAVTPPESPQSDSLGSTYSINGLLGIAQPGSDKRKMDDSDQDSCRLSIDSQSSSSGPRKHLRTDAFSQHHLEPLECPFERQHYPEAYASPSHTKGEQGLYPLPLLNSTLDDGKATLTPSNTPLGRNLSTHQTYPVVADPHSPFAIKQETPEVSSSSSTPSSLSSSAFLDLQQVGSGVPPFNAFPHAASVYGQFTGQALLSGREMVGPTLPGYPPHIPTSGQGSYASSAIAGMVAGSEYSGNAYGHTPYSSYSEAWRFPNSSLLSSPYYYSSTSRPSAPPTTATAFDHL

[6] = PAX2 cell-based inhibition, dose response, selectivity assay for PAX8 inhibitor project, plate reader, dry powder samples (AID 743048); type: functional;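 also: HEK293 cells carrying a WT1 promoter luciferase reporter driven by expressed Pax2; potency is for inhibition of Pax2 driven reporter signal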
[7] = NIH:OVCAR-3 ovarian cancer cell cytotoxicity, dose response, PAX8 inhibitor project, plate reader, dry powder samples (AID 743044); type: functional, cell-based
[8] = PAX5 activity inhibitors, dose response, selectivity assay for PAX8 inhibitor project, cell-based, plate reader, dry powder samples (AID 743047); type: functional;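 also: HEK293 cells carrying a Pax5 driven CD19 promoter luciferase reporter; potency of inhibitors that lower reporter luminescence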
[9] = cytotoxicity in OVCAR4 cells, dose response, cytotoxicity control for PAX8 inhibitor project, cell-based, plate reader, dry powder, SA11 (AID 743150); type: functional; details: OVCAR-4
[10] = cytotoxicity in OV-90 ovarian cancer cells, dose response, PAX8 inhibitor project, cell-based, plate reader, dry powder, SA8 (AID 743149); type: functional
[11] = cytotoxicity dependent on PAX8, dose response, cell-based, plate reader, dry powder (AID 743049); type: functional
[12] = IOSE-T80 ovarian epithelial cell cytotoxicity, dose response, cytotoxicity control for PAX8 inhibitor project, plate reader, dry powder samples (AID 743045); type: functional, cell-based
[13] = A549 cell cytotoxicity, dose response, cytotoxicity control, 24 h, CellTiter-Glo luminescence, cherry-picks (AID 1053115); type: functional, cell-based; details: A549, 24 h
[14] = HEK293T cytotoxicity, dose response, cytotoxicity control for miR-122 modulator project, cell-based, inhibitor set, cherry-pick, set 2 (AID 720697); type: functional
[15] = HEK293T cytotoxicity, dose response, cytotoxicity control for miR-122 modulator project, cell-based, activator set, cherry-pick (AID 720690); type: functional;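 also: HEK293T human cells scored for general mammalian cytotoxicity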
[16] = cytotoxicity in OVCAR8 ovarian cancer cells, dose response, PAX8 project, cell-based, plate reader, dry powder samples (AID 743197); type: functional; details: OVCAR-8
[17] = A549 cell cytotoxicity, dose response, CellTiter-Glo luminescence, dry powder, set 17 (AID 1117284); type: functional, cell-based
[18] = T. cruzi growth inhibition in host cells, dose response, cell-based, plate reader, dry powder, set 2 (AID 652275); type: functional
[19] = growth inhibition of intracellular T. cruzi, dose response, cell-based, plate reader, dry powder samples (AID 651845); type: functional
[20] = T. cruzi intracellular amastigote growth inhibition, dose response, imaging, CA-I/72 strain, bovine embryo skeletal muscle, dry powder (AID 651885); type: functional, cell-based
[21] = P. falciparum 3D7-ScDHODH growth inhibitors, dose response, SYBR Green, dry powder samples (AID 1159570); type: functional, cell-based;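 also: parasite growth measured after 72 hours of compound exposure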
[22] = P. falciparum Dd2 growth inhibitors, dose response, SYBR Green, dry powder samples, set 9 (AID 1159568); type: functional, cell-based
[23] = P. falciparum Dd2 growth inhibitors, dose response, SYBR Green, cherry-picked samples (AID 1159567); type: functional, cell-based
[24] = P. falciparum Dd2 growth inhibitors, dose response, SYBR Green, dry powder samples (AID 1159566); type: functional, cell-based;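 also: potency for growth inhibition with lower SYBR green DNA signal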
[25] = Plasmodium falciparum Dd2 Sybr green parasite growth Measured in Cell-Based and Microorganism Combination System Using Plate Reader - 2153-01_Inhibitor_Dose_DryPowder_Activity_Set3.; type: functional
[26] = P. falciparum ATP4 D1247Y mutant growth inhibitors, dose response, NITD609-resistant line, SYBR Green, dry powder (AID 1159571); type: functional, cell-based;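 also: parasites synchronized at ring stage by sorbitol before testing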
[27] = Late stage results for the probe development effort to identify inhibitors of Plasmodium falciparum gametocytes: Luminescence-based cell-based high throughput dose response assay to identify inhibitors of viability of late stage Plasmodium falciparum gametocytes.; type: functional
[28] = Concentration-dependent survival of SW480 colon cancer line, luminescence detection with CellTiter-Glo, half-maximal inhibitory concentration (AID 1117338); type: functional
[29] = RKO cell viability reduction, dose response, CellTiter-Glo luminescence (AID 1117322); type: functional
[30] = cytotoxicity toward HCT116 cells – cell-based, CellTiter-Glo luminescence, IC50, dose response (AID 1117332); type: functional; details: HCT-116
[31] = SNU-C1 cell viability reduction, dose response, CellTiter-Glo luminescence (AID 1117323); type: functional, cell-based
[32] = half-maximal inhibitory concentration for glucagon-like peptide-1 release, STC-1 cell line, dose-response (AID 1117345); type: functional, cell-based
[33] = cytotoxicity toward Colo320 cells – cell-based, CellTiter-Glo luminescence, IC50, dose response (AID 1117334); type: functional; details: COLO 320
[34] = cytotoxicity toward HT-29 cells – cell-based, CellTiter-Glo luminescence, IC50, dose response (AID 1117330); type: functional
[35] = CellTiter-Glo luminescent dose response of DLD-1 viability loss (AID 1117352); type: functional
[36] = HCT116 cell viability decrease, GSK3B pretreatment – CellTiter-Glo, IC50, dose response (AID 1117339); type: functional; details: HCT-116
[37] = Glucagon-like peptide 1 release potency, NCI-H716 cell line, dose-response, half-maximal inhibitory concentration (AID 1117344); type: functional, cell-based
[38] = Dose-response inhibition of insulin secretion in a rat insulinoma line at 5 mM glucose (AID 1117331); type: functional, cell-based; details: INS-1E
[39] = cells; type: functional, cell-based; details: INS-1E

Sphingosine 1-phosphate receptor 2, sequence (O95136 whole entry): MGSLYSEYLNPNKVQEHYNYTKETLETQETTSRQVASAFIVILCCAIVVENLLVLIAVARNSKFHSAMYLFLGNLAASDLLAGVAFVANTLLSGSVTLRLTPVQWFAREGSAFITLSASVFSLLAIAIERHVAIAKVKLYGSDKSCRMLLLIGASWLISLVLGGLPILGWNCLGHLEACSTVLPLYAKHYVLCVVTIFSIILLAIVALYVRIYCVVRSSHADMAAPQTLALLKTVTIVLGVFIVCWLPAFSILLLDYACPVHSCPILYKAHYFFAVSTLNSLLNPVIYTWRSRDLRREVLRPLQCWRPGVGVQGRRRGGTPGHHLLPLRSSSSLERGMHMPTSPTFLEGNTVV

Compound: Cc1ccc(-c2nn(-c3ccccc3)cc2/C=N/NC(=O)c2ccc(Br)o2)cc1
IC50 [1]: 3.36 µM (active)
AC50 [2]: 0.716 µM (active)

IC50 [3]: 10.5 µM (not active)
Compound: CC1C(=O)NN=C1C(=O)N/N=C\C(Br)=C\c1ccccc1 (stereo unspecified)

Compound: COc1ccc(S(=O)(=O)Nc2ccc3c(c2)CC(=O)N([C@@H](C)CO)C[C@H](C)[C@@H](CN(C)Cc2ccc(C(F)(F)F)cc2)O3)cc1
AC50 [4]: 3.67 µM (active)
AC50 [5]: 6.21 µM (active)
AC50 [6]: 20 µM (active)
AC50 [7]: 49.1 µM (active)
AC50 [8]: 21.7 µM (active)
AC50 [9]: 59.7 µM (active)
AC50 [10]: > 70 µM (inactive)
AC50 [11]: 31.3 µM (active)

Compound: C[C@H](O)C#Cc1ccc2c(c1)O[C@@H](CN(C)Cc1ccc(-c3ccccc3)cc1)[C@H](C)CN([C@H](C)CO)S2(=O)=O
AC50 [5]: 5.27 µM (active)
AC50 [12]: 34.8 µM (active)
AC50 [13]: 50.8 µM (active)
AC50 [7]: 46.9 µM (active)
AC50 [14]: 8.52 µM (active)
AC50 [15]: 9.51 µM (active)
AC50 [16]: 44.2 µM (active)
AC50 [17]: 26.4 µM (active)

Compound: CC(C)N1C[C@H](C)[C@@H](CN(C)Cc2ccc(Oc3ccccc3)cc2)Oc2c(NC(=O)c3ccccc3)cccc2C1=O
AC50 [18]: 0.506 µM (active)
AC50 [19]: 0.506 µM (active)
IC50 [20]: > 20 µM (inactive)

Compound: CO[C@@H]1CN(C)C(=O)c2ccc(NC(=O)c3ccc4c(c3)OCO4)cc2OC[C@@H](C)N(Cc2ccc3c(c2)OCO3)C[C@H]1C
AC50 [21]: 4.99 µM (active)
AC50 [22]: 1.73 µM (active)
AC50 [23]: 1.11 µM (active)
AC50 [24]: 0.279 µM (active)
AC50 [25]: 1.92 µM (active)
AC50 [26]: 1.17 µM (active)

Compound: O=C(Nc1nccs1)c1cc(C2CC2)nn1-c1ccccc1
IC50 [27]: > 37.2 µM (inactive)

Compound: Clc1ccc(C(Cn2ccnc2)OCc2c(Cl)cccc2Cl)c(Cl)c1 (stereo unspecified) [ISOCONAZOLE]
IC50 [28]: 2.6 µM (active)
IC50 [29]: 4.01 µM (active)
IC50 [30]: 1.59 µM (active)
IC50 [31]: 0.886 µM (active)
IC50 [32]: > 40 µM (inactive)
IC50 [33]: 1.82 µM (active)
IC50 [34]: 5 µM (inactive)
IC50 [35]: 2.36 µM (active)
IC50 [36]: 1.4 µM (active)
IC50 [37]: > 40 µM (inactive)

Compound: CC1CC(=O)NN=C1c1ccc(NCC(C)(C)NCC(O)COc2cc(Cl)ccc2C#N)cc1 (stereo unspecified) [OBERADILOL]
IC50 [38]: 15.2 µM (inactive)
IC50 [39]: > 33.3 µM (inactive)
